Measured values: patent publication US6797698B1, “Method of treating prolonged critical illness and other conditions having a similar neuroendocrine pattern” (K.U. Leuven Research & Development, priority 1998, dated 2004)

Assays:
[1] = tested on: GH secretion and GH-dependent parameters; experiment: 21 h (21-45 h) infusion in protracted critical illness: GH secretion and GH-dependent parameters; format: in vivo, human
Protocol: The inventors have also shown that infusion of GHRP-2 for 21 h in this condition increases pulsatile GH secretion >6-fold, associated with increases in IGF-I, IGFBP-3 and ALS. […] This observation strongly favors the presence of active feedback inhibition preventing overcorrection of the somatotropic axis with this strategy. Treatment with high doses of recombinant human GH has recently shown to increase morbidity and mortality of critical illness. The inability to overtreat with GH-secretagogues is an important advantage over exogenous GH, especially in the vulnerable critically ill elderly.

catabolism = experiment: LHRH effect on catabolism resulting from testosterone deficiency; conditions: in vivo
Excerpt: Optionally the administration of GHRP and TRH can be supplemented with Luteinizing Hormone Releasing Hormone (LHRH). A shortage of pulsatile LH secretion can lead to testosterone deficiency in males, which in turn can cause an increase in catabolism.

[2] = tested on: TSH secretion and thyroid hormone levels; experiment: 21 h (21-45 h) infusion in protracted critical illness: TSH secretion and thyroid hormones; format: in vivo, human; conditions: 21 h infusion

GHRP-2
ALS (in words) ([1]; infusion for 21 h): increases
IGF-I (in words) ([1]; infusion for 21 h): increases
IGFBP-3 (in words) ([1]; infusion for 21 h): increases
increase in pulsatile GH secretion ([1]; infusion for 21 h): > 6 fold

Luteinizing Hormone Releasing Hormone (QHWSYGLRPG; Gonadoliberin-1; UniProt P01148 24-33, looked up) [LHRH, Luteinizing Hormone Releasing Hormone, optional supplement to GHRP and TRH]
effect on catabolism that results from testosterone deficiency (in words) (catabolism): no effect

NC(=O)[C@@H]1CCCN1C(=O)[C@H](Cc1cnc[nH]1)NC(=O)[C@@H]1CCC(=O)N1 [TRH, Thyroid Releasing Hormone]
GH-dependent parameters (in words) ([1]; 21 h infusion): did not alter
TSH secretion (in words) [2]: increasing
thyroid hormone levels (in words) [2]: increasing
